Laboratory results reported in patent US20140087369A1, “INFECTION DETECTION METHODS AND SYSTEMS AND RELATED COMPOUNDS AND COMPOSITIONS” (priority 2010, published 2014).

Test system: viral neuraminidase
Assay type: biochemical, influenza virus
Details: pH 5.5

Compound | enzymatic cleavage of the substrate and release of odorant (decrease of substrate signal, appearance of cleavage product signals)
CC(=O)NC1C(O)CC(OCC2(C)CC2CC2CC3CC3(C)C2(C)C)(C(=O)O)OC1CC(O)CO [javanol, Sodium ([(1R,2S)-1-methyl-2-[[(1R,3S,5S)-1,2,2-trimethyl-3-bicyclo[3.1.0]hexanyl]methyl]cyclopropyl]methyl-5-acetamido-3,5-dideoxy-α-D-glycero-D-galacto-2-nonulopyranoside)onate] | substrate is still present
Sodium (4-(4-hydroxy-3-methoxyphenyl)butan-2-one-5-acetamido-3,5-dideoxy-α-D-glycero-D-galacto-2-nonulopyranoside)onate [zingerone] | significant loss of peak at 508.3 amu
